How the values were obtained:
Assay in all cases: NCI-60 anticancer screening (SRB)
Assay type in all cases: cell-based
[1] = tested on: OVCAR-3; details: Homo sapiens; OVCAR-3, ovarian cancer; one dose 10 μM; read-out: Growth Inhibition Percentage (GI %)
[2] = tested on: OVCAR-5; details: Homo sapiens; OVCAR-5, ovarian cancer; one dose 10 μM; read-out: Growth Inhibition Percentage (GI %)
[3] = tested on: CCRF-CEM; details: Homo sapiens, leukemia, one dose 10 μM, read-out: Growth Inhibition Percentage (GI %)
[4] = tested on: KM 12; details: Homo sapiens, KM12; KM 12, colon cancer; one dose 10 μM; read-out: Growth Inhibition Percentage (GI %)
[5] = tested on: BT-549; details: Homo sapiens; BT-549, breast cancer; one dose 10 μM; read-out: Growth Inhibition Percentage (GI %)
[6] = tested on: MDA-MB-231; details: Homo sapiens; MDA-MB-231, breast cancer; one dose 10 μM; read-out: Growth Inhibition Percentage (GI %)
[7] = tested on: EKVX; details: Homo sapiens, NSC lung cancer, one dose 10 μM, read-out: Growth Inhibition Percentage (GI %)
[8] = tested on: NCI-H322M; details: Homo sapiens, NSC lung cancer, one dose 10 μM, read-out: Growth Inhibition Percentage (GI %)
[9] = tested on: HOP-92; details: Homo sapiens; HOP-92, NSC lung cancer; one dose 10 μM; read-out: Growth Inhibition Percentage (GI %)
[10] = tested on: SR; details: Homo sapiens, leukemia, one dose 10 μM, read-out: Growth Inhibition Percentage (GI %)
[11] = tested on: NCI-H226; details: Homo sapiens; NCI-H226, NSC lung cancer; one dose 10 μM; read-out: Growth Inhibition Percentage (GI %)
[12] = tested on: SW-620; details: Homo sapiens; SW-620, colon cancer; one dose 10 μM; read-out: Growth Inhibition Percentage (GI %)
[13] = tested on: OVCAR-4; details: Homo sapiens; OVCAR-4, ovarian cancer; one dose 10 μM; read-out: Growth Inhibition Percentage (GI %)
[14] = tested on: SNB-19; details: Homo sapiens; SNB-19, CNS cancer; one dose 10 μM; read-out: Growth Inhibition Percentage (GI %)
[15] = tested on: SK-OV-3; details: Homo sapiens; SK-OV-3, ovarian cancer; one dose 10 μM; read-out: Growth Inhibition Percentage (GI %)
[16] = tested on: LOX IMVI; details: Homo sapiens, melanoma, one dose 10 μM, read-out: Growth Inhibition Percentage (GI %)
[17] = tested on: ACHN; details: Homo sapiens, renal cancer, one dose 10 μM, read-out: Growth Inhibition Percentage (GI %)
[18] = tested on: A498; details: Homo sapiens; A498, renal cancer; one dose 10 μM; read-out: Growth Inhibition Percentage (GI %)
[19] = tested on: SN 12C; details: Homo sapiens, SN12C; SN 12C, renal cancer; one dose 10 μM; read-out: Growth Inhibition Percentage (GI %)
[20] = tested on: RPMI-8226; details: Homo sapiens; RPMI-8226, leukemia; one dose 10 μM; read-out: Growth Inhibition Percentage (GI %)
[21] = tested on: HCC-2998; details: Homo sapiens; HCC-2998, colon cancer; one dose 10 μM; read-out: Growth Inhibition Percentage (GI %)
[22] = tested on: MDA-MB-468; details: Homo sapiens; MDA-MB-468, breast cancer; one dose 10 μM; read-out: Growth Inhibition Percentage (GI %)
[23] = tested on: MALME-3M; details: Homo sapiens, melanoma, one dose 10 μM, read-out: Growth Inhibition Percentage (GI %)
[24] = tested on: SK-MEL-28; details: Homo sapiens; SK-MEL-28, melanoma; one dose 10 μM; read-out: Growth Inhibition Percentage (GI %)
[25] = tested on: SNB-75; details: Homo sapiens; SNB-75, CNS cancer; one dose 10 μM; read-out: Growth Inhibition Percentage (GI %)
[26] = tested on: TK-10; details: Homo sapiens; TK-10, renal cancer; one dose 10 μM; read-out: Growth Inhibition Percentage (GI %)
[27] = tested on: CAKI-1; details: Homo sapiens; CAKI-1, renal cancer; one dose 10 μM; read-out: Growth Inhibition Percentage (GI %)
[28] = tested on: SK-MEL-2; details: Homo sapiens; SK-MEL-2, melanoma; one dose 10 μM; read-out: Growth Inhibition Percentage (GI %)
[29] = tested on: 786-0; details: Homo sapiens; 786-0, renal cancer; one dose 10 μM; read-out: Growth Inhibition Percentage (GI %)
[30] = tested on: U251; details: Homo sapiens, U-251; U251, CNS cancer; one dose 10 μM; read-out: Growth Inhibition Percentage (GI %)
[31] = tested on: SK-MEL-5; details: Homo sapiens; SK-MEL-5, melanoma; one dose 10 μM; read-out: Growth Inhibition Percentage (GI %)
[32] = tested on: A549/ATCC; details: Homo sapiens; A549/ATCC, NSC lung cancer; one dose 10 μM; read-out: Growth Inhibition Percentage (GI %)
[33] = tested on: T-47D; details: Homo sapiens, T47D, breast cancer, one dose 10 μM, read-out: Growth Inhibition Percentage (GI %)

| Compound | inhibition at 10 µM [1] | inhibition at 10 µM [2] | inhibition at 10 µM [3] | inhibition at 10 µM [4] | inhibition at 10 µM [5] | inhibition at 10 µM [6] | inhibition at 10 µM [7] | inhibition at 10 µM [8] | inhibition at 10 µM [9] | inhibition at 10 µM [10] | inhibition at 10 µM [11] | inhibition at 10 µM [12] | inhibition at 10 µM [13] | inhibition at 10 µM [14] | inhibition at 10 µM [15] | inhibition at 10 µM [16] | inhibition at 10 µM [17] | inhibition at 10 µM [18] | inhibition at 10 µM [19] | inhibition at 10 µM [20] | other results |
| --- | --- | --- | --- | --- | --- | --- | --- | --- | --- | --- | --- | --- | --- | --- | --- | --- | --- | --- | --- | --- | --- |
| CCOC(=O)C1=C(N)N(c2ccc(Cl)cc2)C2=C(C(=O)CC(C)(C)C2)C1c1cccnc1 (racemic) [12f, (±)-Ethyl 2-amino-1–(4-chlorophenyl)-7,7-dimethyl-5-oxo-4-(pyridin-3-yl)-1,4,5,6,7,8-hexahydroquinoline-3-carboxylate] | < 10% | < 10% | < 10% | < 10% | < 10% | < 10% | < 10% | < 10% | < 10% | < 10% | < 10% | < 10% | 13% | < 10% | < 10% | 12% | < 10% | < 10% | < 10% | 12% | inhibition at 10 µM [21]: < 10%; inhibition at 10 µM [22]: < 10%; inhibition at 10 µM [23]: < 10%; inhibition at 10 µM [24]: < 10%; inhibition at 10 µM [25]: 21%; inhibition at 10 µM [26]: < 10%; inhibition at 10 µM [27]: < 10%; inhibition at 10 µM [28]: < 10%; inhibition at 10 µM [29]: < 10%; inhibition at 10 µM [30]: < 10%; inhibition at 10 µM [31]: < 10%; inhibition at 10 µM [32]: 15%; inhibition at 10 µM [33]: 25% |
| CCOC(=O)C1=C(N)N(c2ccc(Cl)cc2)C2=C(C(=O)CC(C)(C)C2)C1c1ccccc1OC (racemic) [6i, (±)-Ethyl 2-amino-1–(4-chlorophenyl)-4–(2-methoxyphenyl)-7,7-dimethyl-5-oxo-1,4,5,6,7,8-hexahydroquinoline-3-carboxylate] | 19% | 15% | 56% | 54% | 20% | 31% | 44% | 15% | 12% | 64% | 30% | 23% | 58% | 28% | < 10% | 37% | 38% | < 10% | 12% | 73% | inhibition at 10 µM [21]: 38%; inhibition at 10 µM [22]: 39%; inhibition at 10 µM [23]: 40%; inhibition at 10 µM [24]: 36%; inhibition at 10 µM [25]: 18%; inhibition at 10 µM [26]: < 10%; inhibition at 10 µM [27]: 12%; inhibition at 10 µM [28]: 15%; inhibition at 10 µM [29]: < 10%; inhibition at 10 µM [30]: 28%; inhibition at 10 µM [31]: 29%; inhibition at 10 µM [32]: 52%; inhibition at 10 µM [33]: 40% |
| CCOC(=O)C1=C(N)N(c2ccc(Cl)cc2)C2=C(C(=O)CC(C)(C)C2)C1c1ccc(Cl)cc1Cl (racemic) [10d, (±)-Ethyl 2-amino-1–(4-chorophenyl)-4–(2,4-dichlorophenyl)-7,7-dimethyl-5-oxo-1-phenyl-1,4,5,6,7,8-hexahydroquinoline-3-carboxylate] | 49% | 17% | 64% | 54% | 24% | 42% | 71% | 29% | 55% | 75% | 62% | < 10% | 56% | 46% | 46% | < 10% | 50% | 23% | 47% | 85% | inhibition at 10 µM [21]: 23%; inhibition at 10 µM [22]: 82%; inhibition at 10 µM [23]: 32%; inhibition at 10 µM [24]: 30%; inhibition at 10 µM [25]: 11%; inhibition at 10 µM [26]: 30%; inhibition at 10 µM [27]: 54%; inhibition at 10 µM [28]: 37%; inhibition at 10 µM [29]: 31%; inhibition at 10 µM [30]: 58%; inhibition at 10 µM [31]: 51%; inhibition at 10 µM [32]: 48%; inhibition at 10 µM [33]: 74% |
| CCOC(=O)C1=C(N)N(c2ccc(C)cc2)C2=C(C(=O)CC(C)(C)C2)C1c1ccccc1Cl (racemic) [6b, (±)-Ethyl 2-amino-4–(2-chlorophenyl)-7,7-dimethyl-1–(4-methylphenyl)-5-oxo-1,4,5,6,7,8-hexahydroquinoline-3-carboxylate] | 17% | < 10% | < 10% | < 10% | 11% | < 10% | 15% | < 10% | < 10% | < 10% | < 10% | 19% | < 10% | 12% | < 10% | < 10% | < 10% | < 10% | < 10% | 22% | inhibition at 10 µM [21]: < 10%; inhibition at 10 µM [22]: 20%; inhibition at 10 µM [23]: < 10%; inhibition at 10 µM [24]: < 10%; inhibition at 10 µM [25]: 29%; inhibition at 10 µM [26]: < 10%; inhibition at 10 µM [27]: 31%; inhibition at 10 µM [28]: < 10%; inhibition at 10 µM [29]: < 10%; inhibition at 10 µM [30]: < 10%; inhibition at 10 µM [31]: 17%; inhibition at 10 µM [32]: 13%; inhibition at 10 µM [33]: 21% |

Source: paper PMC10408569, “Recruitment of hexahydroquinoline as anticancer scaffold targeting inhibition of wild and mutants EGFR (EGFR^WT, EGFR^T790M, and EGFR^L858R)” (Journal of Enzyme Inhibition and Medicinal Chemistry, 2023)
